# Legend:
# ATR kinase = ATR kinase (Homo sapiens (Human), UniProt Q13535); assay: In vitro ATR kinase inhibition assay (Mobility Shift Assay, Caliper EZ Reader); format: biochemical; settings: for IC50: ATP concentration of Km, 4 h at 28° C.; for ATR IC50 value (ratio to Example Compound 1): ATR IC50 of comparative compound divided by that of Example Compound 1 (5.5 nM)
# Protocol: Experimental method: The inhibitory activity of the compounds on ATR kinase in vitro was determined by Mobility Shift Assay at an ATP concentration of Km using Caliper EZ Reader as a mobility shift assaying technology based on microfluidic chip technology.
# Experimental procedure: (1) The compounds to be tested were dissolved in DMSO and serially diluted 4× for a total of 10 concentrations; (2) 0.06 μL of the compounds at different concentrations were pipetted into a 384-well plate using an Echo pipetting system; (3) a 2× kinase solution with a concentration of 10 nM ATR kinase was prepared from the ATR kinase and the 1× kinase buffer; and a 2× substrate solution with a concentration of 6 μM 5-FAM-AK-17 and 4 μM ATP was prepared from 5-FAM-AK-17, ATP and the 1× kinase buffer; (4) 10 μL of the 2× kinase solution was added into the 384-well plate and incubated for 10 min at room temperature; 10 μL of the 2× substrate solution was then added and incubated for 4 h at 28° C.; (5) 30 μL of the termination buffer was added to terminate the reaction, and then the 384-well plate was put into the Caliper EZ Reader to read the conversion rate data.
# [1] = tested on: human colon cancer LoVo cells; assay: Cell proliferation inhibition assay (CellTiter-Glo); format: cell-based; settings: for IC50 / Emax / Max Inhibition: LoVo cells, 96 hours incubation; for Emax: Homo sapiens, read-out: Max Inhibition; for LoVo IC50 value (ratio to Example Compound 1): LoVo IC50 of comparative compound divided by that of Example Compound 1 (0.66 μM)
# Description: Experimental method: A CellTiter-Glo cell viability assay kit was used to test the inhibitory effect of the compounds on the in vitro proliferation of human colon cancer LoVo cells.
# Experimental materials: LoVo cells (ATCC, Cat. No. CCL-29); F-12K medium (Invitrogen, Cat. No. 21127-022); fetal bovine serum (Biological Industries, Cat. No. 04-002-1A); GlutaMAX (Gibco, Cat. No. 35050-061); 0.25% trypsin-EDTA (Invitrogen, Cat. No. 25200-072); CellTiter-Glo kit (Promega, Cat. No. G7558).
# Experimental procedure: (1) F-12K medium, fetal bovine serum and GlutaMAX were formulated into a complete medium for culturing LoVo cells; (2) well-grown LoVo cells were taken, digested with trypsin and transferred to a centrifuge tube, and centrifuged; the supernatant was discarded, and cells were resuspended by adding a fresh medium and counted by a Vi-CELL XR cell counter; the density of the cell suspension was adjusted to 25,000 to 30,000 cells/mL, and the cell suspension was added at 100 μL/well in a 96-well cell culture plate, while a blank control group was set up with no cells added, and the cell culture plate was incubated in a carbon dioxide incubator overnight; (3) a DMSO solution of the compound to be tested was dispensed into the above 96-well cell culture plate using an HP D300 ultra-micro sampler, with 0.5 μL of the solution per well and 10 concentrations for each compound (3× dilution), while a DMSO control group with no compound added was set up, and the plate was continued to be incubated in a carbon dioxide incubator for 96 hours; (4) the cell culture plate was taken out and equilibrated to room temperature, with 100 μL of a CellTiter-Glo reagent added to each well, and then the plate was kept away from light, shaken for 10 minutes and then incubated for 10 minutes; (5) the cell culture plate was put into EnSpire for plate reading, and the luminescence value RLU was recorded.
# Data processing: (1) The inhibition rate was calculated from the luminescence values: “RLUDMSO” is the luminescence value of the DMSO control group without compound, “RLUblank” is the luminescence value of the blank control group without cells, and “RLUcompound” is the luminescence value of the compound test group, and the inhibition rate=[1−(RLUcompound−RLUblank)/(RLUDMSO−RLUblank)]×100%; (2) with curve fitting using the Excel add-on XLFit, the IC50 value was calculated.
# Chain of ATR kinase (Q13535 whole entry): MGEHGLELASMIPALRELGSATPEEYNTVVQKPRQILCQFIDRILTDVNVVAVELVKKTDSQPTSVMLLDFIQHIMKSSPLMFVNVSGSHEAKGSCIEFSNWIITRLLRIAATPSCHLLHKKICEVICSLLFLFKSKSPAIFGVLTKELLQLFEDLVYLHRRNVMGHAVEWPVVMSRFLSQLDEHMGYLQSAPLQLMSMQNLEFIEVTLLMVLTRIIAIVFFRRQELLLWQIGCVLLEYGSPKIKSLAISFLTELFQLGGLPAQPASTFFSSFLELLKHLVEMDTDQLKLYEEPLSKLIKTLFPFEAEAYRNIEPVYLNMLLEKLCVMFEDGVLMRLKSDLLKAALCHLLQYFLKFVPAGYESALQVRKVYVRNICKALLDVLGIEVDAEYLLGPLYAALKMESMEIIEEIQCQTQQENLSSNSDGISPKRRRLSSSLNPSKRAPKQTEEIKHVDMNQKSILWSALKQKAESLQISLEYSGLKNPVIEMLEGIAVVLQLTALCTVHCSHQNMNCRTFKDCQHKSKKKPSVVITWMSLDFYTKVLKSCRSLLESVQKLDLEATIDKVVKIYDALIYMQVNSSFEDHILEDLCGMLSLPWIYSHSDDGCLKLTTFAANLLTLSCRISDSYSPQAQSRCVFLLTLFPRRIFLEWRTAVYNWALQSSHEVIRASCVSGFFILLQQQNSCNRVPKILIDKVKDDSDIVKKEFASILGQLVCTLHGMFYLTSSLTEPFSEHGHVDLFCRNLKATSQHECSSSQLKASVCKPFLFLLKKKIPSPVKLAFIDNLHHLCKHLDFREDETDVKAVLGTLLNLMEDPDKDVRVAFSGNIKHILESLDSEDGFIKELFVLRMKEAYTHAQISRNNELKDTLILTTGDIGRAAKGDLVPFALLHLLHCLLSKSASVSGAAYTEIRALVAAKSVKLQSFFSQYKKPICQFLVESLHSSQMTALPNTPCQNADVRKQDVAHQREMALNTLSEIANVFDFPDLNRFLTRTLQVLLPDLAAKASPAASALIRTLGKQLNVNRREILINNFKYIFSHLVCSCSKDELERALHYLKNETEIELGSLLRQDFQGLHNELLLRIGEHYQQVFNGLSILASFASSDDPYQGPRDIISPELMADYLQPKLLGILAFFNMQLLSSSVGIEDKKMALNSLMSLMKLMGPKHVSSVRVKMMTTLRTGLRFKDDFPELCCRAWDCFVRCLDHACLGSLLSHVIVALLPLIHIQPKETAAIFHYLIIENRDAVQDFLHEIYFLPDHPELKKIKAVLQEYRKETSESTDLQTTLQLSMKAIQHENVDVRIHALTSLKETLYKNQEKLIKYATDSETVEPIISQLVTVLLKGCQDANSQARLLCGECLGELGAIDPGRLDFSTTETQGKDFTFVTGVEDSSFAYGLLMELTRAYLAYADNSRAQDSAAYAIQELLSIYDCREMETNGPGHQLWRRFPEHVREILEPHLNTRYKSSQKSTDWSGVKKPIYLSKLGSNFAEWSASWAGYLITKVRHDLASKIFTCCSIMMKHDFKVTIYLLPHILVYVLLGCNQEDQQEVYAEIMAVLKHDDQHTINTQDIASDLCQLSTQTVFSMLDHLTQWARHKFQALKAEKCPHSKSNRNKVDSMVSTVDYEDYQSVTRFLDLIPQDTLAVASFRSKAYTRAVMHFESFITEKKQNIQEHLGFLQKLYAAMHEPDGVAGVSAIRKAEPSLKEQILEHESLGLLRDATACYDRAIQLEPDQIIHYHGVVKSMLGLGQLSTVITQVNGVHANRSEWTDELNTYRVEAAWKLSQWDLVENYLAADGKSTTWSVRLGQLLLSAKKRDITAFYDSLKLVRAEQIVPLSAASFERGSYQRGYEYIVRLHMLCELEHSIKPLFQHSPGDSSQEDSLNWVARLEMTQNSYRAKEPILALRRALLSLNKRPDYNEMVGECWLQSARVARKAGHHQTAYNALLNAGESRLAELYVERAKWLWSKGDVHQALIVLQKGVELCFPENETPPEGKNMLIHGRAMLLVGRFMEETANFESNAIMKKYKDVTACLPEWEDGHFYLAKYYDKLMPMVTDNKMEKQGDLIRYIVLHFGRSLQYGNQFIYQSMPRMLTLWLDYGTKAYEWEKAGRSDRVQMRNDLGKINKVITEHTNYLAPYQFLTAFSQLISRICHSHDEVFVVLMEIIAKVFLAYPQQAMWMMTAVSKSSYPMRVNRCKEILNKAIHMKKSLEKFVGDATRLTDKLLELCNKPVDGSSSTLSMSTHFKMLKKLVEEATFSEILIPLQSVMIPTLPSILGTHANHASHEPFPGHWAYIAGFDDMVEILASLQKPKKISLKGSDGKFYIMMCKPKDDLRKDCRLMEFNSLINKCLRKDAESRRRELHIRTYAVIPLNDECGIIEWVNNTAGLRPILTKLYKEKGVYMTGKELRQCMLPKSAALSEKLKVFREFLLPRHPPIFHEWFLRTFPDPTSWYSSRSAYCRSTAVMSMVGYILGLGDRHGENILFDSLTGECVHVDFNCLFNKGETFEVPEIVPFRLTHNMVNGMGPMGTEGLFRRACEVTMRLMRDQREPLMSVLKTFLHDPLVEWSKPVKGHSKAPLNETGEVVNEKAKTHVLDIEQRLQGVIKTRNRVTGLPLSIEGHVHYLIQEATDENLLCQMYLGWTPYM
# Chain of ATR kinase (Q8WXE1 whole entry partner): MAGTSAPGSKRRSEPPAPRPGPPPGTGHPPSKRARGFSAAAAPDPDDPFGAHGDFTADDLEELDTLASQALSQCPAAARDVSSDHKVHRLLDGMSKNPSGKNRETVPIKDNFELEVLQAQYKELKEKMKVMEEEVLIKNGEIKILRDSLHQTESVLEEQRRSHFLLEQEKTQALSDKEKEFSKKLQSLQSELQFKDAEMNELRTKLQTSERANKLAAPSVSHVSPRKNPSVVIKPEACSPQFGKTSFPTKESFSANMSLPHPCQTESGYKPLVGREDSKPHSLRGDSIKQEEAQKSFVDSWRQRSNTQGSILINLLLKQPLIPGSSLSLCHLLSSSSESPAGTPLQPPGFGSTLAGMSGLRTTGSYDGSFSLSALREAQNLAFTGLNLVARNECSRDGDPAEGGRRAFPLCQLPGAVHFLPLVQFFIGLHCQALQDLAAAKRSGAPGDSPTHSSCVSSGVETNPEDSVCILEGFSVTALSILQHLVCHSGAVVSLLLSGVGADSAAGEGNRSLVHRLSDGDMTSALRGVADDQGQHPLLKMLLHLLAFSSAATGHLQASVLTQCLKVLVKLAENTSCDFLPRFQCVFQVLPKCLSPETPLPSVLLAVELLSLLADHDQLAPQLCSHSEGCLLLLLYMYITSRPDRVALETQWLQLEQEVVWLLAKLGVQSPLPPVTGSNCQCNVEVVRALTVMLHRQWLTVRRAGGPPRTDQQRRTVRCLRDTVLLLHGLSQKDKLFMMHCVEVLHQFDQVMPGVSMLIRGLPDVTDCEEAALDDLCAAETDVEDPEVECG
compound,measurement,setting,value
"C[C@@H]1COCCN1c1cc(-c2ccnc3[nH]ccc23)nc2c1ccn2S(C)(=O)=O [Compound 1, (R)-3-methyl-4-(1′-(methylsulfonyl)-1H,1′H-[4,6′-dipyrrolo[2,3-b]pyridin]-4′-yl)morpholine]",IC50,ATR kinase,5.5 nM
same,IC50,[1],660 nM
"C[C@@H]1COCCN1c1cc(-c2cccc3[nH]ccc23)nc2c1ccn2S(C)(=O)=O [Compound 2, (R)-4-(6-(1H-indol-4-yl)-1-(methylsulfonyl)-1H-pyrrolo[2,3-b]pyridin-4-yl)-3-methylmorpholine]",IC50,ATR kinase,4.2 nM
same,Emax,[1],94%
"C[C@@H]1COCCN1c1cc(-c2ccnc3[nH]ccc23)nc2c1ccn2C [Compound 2′, reference compound]",IC50,ATR kinase,63 nM
"C[C@@H]1COCCN1c1cc(-c2cncc3[nH]ccc23)nc2c1ccn2S(C)(=O)=O [Compound 3, (R)-3-methyl-4-(1-(methylsulfonyl)-6-(1H-pyrrolo[2,3-c]pyridin-4-yl)-1H-pyrrolo[2,3-b]pyridin-4-yl)morpholine]",IC50,ATR kinase,10 nM
same,Emax,[1],93%
"C[C@@H]1COCCN1c1nc(-c2cncc3[nH]ccc23)nc2c1ccn2C [Compound 3′, reference compound]",IC50,ATR kinase,31 nM
"C[C@@H]1COCCN1c1cc(-c2cnc3[nH]ccc3c2)nc2c1ccn2S(C)(=O)=O [Compound 4, (R)-3-methyl-4-(1′-(methylsulfonyl)-1H,1′H-[5,6′-dipyrrolo[2,3-b]pyridin]-4′-yl)morpholine]",IC50,ATR kinase,208 nM
"C[C@@H]1COCCN1c1cc(-c2ccnc3[nH]ccc23)nc2c1ccn2CS(C)(=O)=O [Compound 4′, reference compound]",IC50,ATR kinase,20 nM
same,ATR IC50 value (ratio to Example Compound 1),ATR kinase,20/5.5 = 3.64
same,LoVo IC50 value (ratio to Example Compound 1),[1],2.34/0.66 = 3.55
"C[C@@H]1COCCN1c1cc(-c2c[nH]c3ncccc23)nc2c1ccn2S(C)(=O)=O [Compound 5, (R)-3-methyl-4-(1′-(methylsulfonyl)-1H,1′H-[3,6′-dipyrrolo[2,3-b]pyridin]-4′-yl)morpholine]",IC50,ATR kinase,534 nM
"CC(n1ccc2c(N3CCOC[C@H]3C)cc(-c3ccnc4[nH]ccc34)nc21)S(C)(=O)=O (some centres unmarked) [Compound 5′, reference compound]",IC50,ATR kinase,15 nM
same,ATR IC50 value (ratio to Example Compound 1),ATR kinase,15/5.5 = 2.73
same,LoVo IC50 value (ratio to Example Compound 1),[1],1.88/0.66 = 2.85
"Cc1c[nH]c2nccc(-c3cc(N4CCOC[C@H]4C)c4ccn(S(C)(=O)=O)c4n3)c12 [Compound 6, (R)-3-methyl-4-(3-methyl-1′-(methylsulfonyl)-1H,1′H-[4,6′-dipyrrolo[2,3-b]pyridin]-4′-yl)morpholine]",IC50,ATR kinase,188 nM
"C[C@@H]1COCCN1c1cc(-c2ccnc3[nH]ccc23)c2ccn(S(C)(=O)=O)c2n1 [Compound 6′, reference compound]",IC50,ATR kinase,268 nM
"C[C@@H]1COCCN1c1cc(-c2cc(F)cc3[nH]ccc23)nc2c1ccn2S(C)(=O)=O [Compound 7, (R)-4-(6-(6-fluoro-1H-indol-4-yl)-1-(methylsulfonyl)-1H-pyrrolo[2,3-b]pyridin-4-yl)-3-methylmorpholine]",IC50,ATR kinase,3.2 nM
same,Emax,[1],95%
"CC(n1cnc2c(N3CCOC[C@H]3C)nc(-c3cncc4[nH]ccc34)cc21)S(C)(=O)=O (some centres unmarked) [Compound 7′, reference compound]",IC50,ATR kinase,28 nM
"C[C@@H]1COCCN1c1cc(-c2ccc(F)c3[nH]ccc23)nc2c1ccn2S(C)(=O)=O [Compound 8, (R)-4-(6-(7-fluoro-1H-indol-4-yl)-1-(methylsulfonyl)-1H-pyrrolo[2,3-b]pyridin-4-yl)-3-methylmorpholine]",IC50,ATR kinase,78 nM
"C[C@@H]1COCCN1c1cc(-c2ccn[nH]2)nc2c1ccn2S(C)(=O)=O [Compound 9, (R)-3-methyl-4-(1-(methylsulfonyl)-6-(1H-pyrazol-5-yl)-1H-pyrrolo[2,3-b]pyridin-4-yl)morpholine]",IC50,ATR kinase,311 nM
"C[C@@H]1COCCN1c1cc(-c2cn[nH]c2)nc2c1ccn2S(C)(=O)=O [Compound 10, (R)-3-methyl-4-(1-(methylsulfonyl)-6-(1H-pyrazol-4-yl)-1H-pyrrolo[2,3-b]pyridin-4-yl)morpholine]",IC50,ATR kinase,843 nM
"C[C@@H]1COCCN1c1cc(-c2nc3ccccc3[nH]2)nc2c1ccn2S(C)(=O)=O [Compound 11, (R)-4-(6-(1H-benzo[d]imidazol-2-yl)-1-(methylsulfonyl)-1H-pyrrolo[2,3-b]pyridin-4-yl)-3-methylmorpholine]",IC50,ATR kinase,823 nM
"C[C@@H]1COCCN1c1cc(-c2ncnc3[nH]ccc23)nc2c1ccn2S(C)(=O)=O [Compound 12, (R)-3-methyl-4-(1-(methylsulfonyl)-6-(7H-pyrrolo[2,3-d]pyrimidin-4-yl)-1H-pyrrolo[2,3-b]pyridin-4-yl)-morpholine]",IC50,ATR kinase,130 nM
"C[C@@H]1COCCN1c1cc(-c2ccnc3[nH]cnc23)nc2c1ccn2S(C)(=O)=O [Compound 13, (R)-4-(6-(3H-imidazo[4,5-b]pyridin-7-yl)-1-(methylsulfonyl)-1H-pyrrolo[2,3-b]pyridin-4-yl)-3-methylmorpholine]",IC50,ATR kinase,196 nM
"CC(C)S(=O)(=O)n1ccc2c(N3CCOC[C@H]3C)cc(-c3ccnc4[nH]ccc34)nc21 [Compound 14, (R)-4-(1′-(isopropylsulfonyl)-1H,1′H-[4,6′-dipyrrolo[2,3-b]pyridin]-4′-yl)-3-methylmorpholine]",IC50,ATR kinase,35 nM
same,IC50,[1],2130 nM
same,Max Inhibition,[1],93%
"C[C@@H]1COCCN1c1cc(-c2ccnc3[nH]ccc23)nc2c1ccn2S(=O)(=O)C1CC1 [Compound 15, (R)-4-(1′-(cyclopropylsulfonyl)-1H,1′H-[4,6′-dipyrrolo[2,3-b]pyridin]-4′-yl)-3-methylmorpholine]",IC50,ATR kinase,12 nM
same,IC50,[1],1270 nM
same,Max Inhibition,[1],94%
"C[C@@H]1COCCN1c1cc(-c2ccnc3[nH]ccc23)nc2c1ccn2S(=O)(=O)N(C)C [Compound 16, (R)-N,N-dimethyl-4′-(3-methylmorpholinyl)-1H,1′H-[4,6′-dipyrrolo[2,3-b]pyridine]-1′-sulfamide]",IC50,ATR kinase,17 nM
same,IC50,[1],1820 nM
same,Max Inhibition,[1],93%
"C[C@@H]1COCCN1c1nc(-c2ccnc3[nH]ccc23)nc2c1ccn2S(C)(=O)=O [Compound 17, (R)-3-methyl-4-(7-(methylsulfonyl)-2-(1H-pyrrolo[2,3-b]pyridin-4-yl)-7H-pyrrolo[2,3-d]pyrimidin-4-yl)morpholine]",IC50,ATR kinase,1.6 nM
same,Emax,[1],93%
"C[C@@H]1COCCN1c1nc(-c2cccc3[nH]ccc23)nc2c1ccn2S(C)(=O)=O [Compound 18, (R)-4-(2-(1H-indol-4-yl)-7-(methylsulfonyl)-7H-pyrrolo[2,3-d]pyrimidin-4-yl)-3-methylmorpholine]",IC50,ATR kinase,2.3 nM
same,Emax,[1],92%
"C[C@@H]1COCCN1c1nc(-c2cncc3[nH]ccc23)nc2c1ccn2S(C)(=O)=O [Compound 19, (R)-3-methyl-4-(7-(methylsulfonyl)-2-(1H-pyrrolo[2,3-c]pyridin-4-yl)-7H-pyrrolo[2,3-d]pyrimidin-4-yl)morpholine]",IC50,ATR kinase,1.6 nM
same,Emax,[1],90%
"C[C@@H]1COCCN1c1nc(-c2cc(F)cc3[nH]ccc23)nc2c1ccn2S(C)(=O)=O [Compound 20, (R)-4-(2-(6-fluoro-1H-indol-4-yl)-7-(methylsulfonyl)-7H-pyrrolo[2,3-d]pyrimidin-4-yl)-3-methylmorpholine]",IC50,ATR kinase,1.6 nM
same,Emax,[1],91%
"C[C@@H]1COCCN1c1nc(-c2ccnc3[nH]ccc23)nc2c1ccn2S(=O)(=O)CCO [Compound 21, (R)-2-((4-(3-methylmorpholinyl)-2-(1H-pyrrolo[2,3-b]pyridin-4-yl)-7H-pyrrolo[2,3-d]pyrimidin-7-yl)sulfonyl)ethanol]",IC50,ATR kinase,4.4 nM
same,IC50,[1],710 nM
same,Max Inhibition,[1],92%

# From patent US20250051362A1, “SUBSTITUTED FUSED HETEROCYCLIC COMPOUND, AND PREPARATION METHOD THEREFOR AND USE THEREOF” (Shanghai Annova Biotechnology Co., Ltd., priority 2021, published 2025)
